Data set [1] is described as follows: In vitro stability in human plasma. It is filed as in vitro ADME. As to conditions: human, 37 °C, 60 min, read-out: In Vitro Stability in Plasma (% Remaining at 60 min) Mean ± SEM (n = 3), Humans. As for the experimental part: (§1) The in vitro metabolic stability analysis of DPTIP prodrugs was performed in the plasma of mice, dogs, and humans, as previously described. Briefly, for plasma stability, 1 mL of plasma was spiked with 10 μM of the respective prodrug followed by incubation in an orbital shaker at 37 °C for 1 h (in triplicate). The samples from each incubation at predetermined time points (0 and 60 min) was quenched with 3× volume of acetonitrile containing the internal standard (IS; losartan: 0.5 μM). The samples were vortex-mixed for 30 s and centrifuged at 10,000× g for 10 min at 4 °C. Compound disappearance over time was monitored via a Dionex ultra-high-performance LC system coupled with a Q Exactive Focus orbitrap mass spectrometer (Thermo Fisher Scientific Inc., Waltham, MA, USA). Quantification of the prodrugs was performed in full scan mode (from m/z 75 to 1125) by comparing t = 0 min samples with t = 60 min samples.

Details of data set [2]: method as in PMID 35930706. The settings on record: cited from earlier work; for AUC0–t / Cmax / Tmax / t(1/2): released DPTIP in plasma, CES1−/− mice, PO 10 mg/kg DPTIP or equivalent, previously published.
The nature of data set [3]: In vitro stability in dog plasma. The settings on record: dog, 37 °C, 60 min, read-out: In Vitro Stability in Plasma (% Remaining at 60 min) Mean ± SEM (n = 3), Dogs. Type of data set: in vitro ADME. As for the experimental part: as §1

Values joined by “and” are separate entries in the source; they are usually repeats but may differ in a detail not shown here. Equal entries are not always repeated. Structures can show the parent of a compound that is named as a salt.

The amount remaining is the share of the starting amount still present when the sample was taken. The term Cmax denotes the highest concentration seen after dosing. Broadly, the Tmax is the time at which the peak concentration occurs.

As to `COc1cc(-c2nc(-c3ccccc3)c(-c3cccs3)[nH]2)cc(OC)c1OC(=O)N1CCC(N2CCCCC2)CC1` [Prodrug 2], the amount remaining at 1 h, 10 μM in data set [1] was above 90%. For the same molecule, in data set [2], the “AUC0–t” value was 273 ± 36.8 pmol·h/mL, the Cmax was 149 ± 9.9 nM, the Tmax is 1 h and the “t(1/2)” value was 1.4 h. Further, the amount remaining at 1 h, 10 μM in data set [3] is above 90%.

In the case of `COc1cc(-c2nc(-c3ccccc3)c(-c3cccs3)[nH]2)cc(OC)c1OC(=O)N(C)C` [Prodrug 4], the fraction remaining at 1 h, 10 μM in data set [1] and in data set [3] was above 90% each time.

Take `CCC1CC(N2CCCCC2)CC(CC)N1C(=O)Oc1c(OC)cc(-c2nc(-c3ccccc3)c(-c3cccs3)[nH]2)cc1OC` (centres unmarked) [Prodrug 7]: the fraction remaining at 1 h, 10 μM in data set [1] was above 90%. Further, in data set [2] (mice, PO), the “fold increase in DPTIP plasma exposure (AUC0–t) compared to DPTIP” value is > 4 fold and 4 fold. Also, in data set [2], the “AUC0–t” value is on record as 1047 ± 101 ^α pmol·h/mL, the Cmax is 191 ± 39.6 nM, the Tmax was 2 h and the “t(1/2)” value was 2.7 h. Further, the share remaining at 1 h, 10 μM in data set [3] is above 90%.

On to `COc1cc(-c2nc(-c3ccccc3)c(-c3cccs3)[nH]2)cc(OC)c1OC(=O)[C@@H](N)C(C)C` [Prodrug 8, 2,6-Dimethoxy-4-(4-phenyl-5-(thiophen-2-yl)-1H-imidazol-2-yl) phenyl L-valinate hydrochloride], for which the share remaining at 1 h, 10 μM in data set [1] and in data set [3] was around 0% each time.

Source of the values: article PMC11768932, “Pharmacokinetic Evaluation of Neutral Sphinghomyelinase2 (nSMase2) Inhibitor Prodrugs in Mice and Dogs” (Pharmaceutics, 2024).
